Series [1] has as its system HIV. As to conditions: described in Org. Biomol. Chem., 2003, 3514-3526; cited from earlier work.
Series [2] concerns HCV replicon (HCV type 1b NS3-NS5B) in Huh-7 luc/neo cells. Nature of the series: HCV replicon assay (Huh-Luc, luciferase readout). It is filed as cell-based, HCV genotype 1b. The conditions noted are these: Hepatitis C virus, Huh-7, 72 h, three days incubation, luciferase activity. Here is the method: (§1) The in vitro antiviral activity against HCV of the compound of formula I was tested in a cellular HCV replicon system based on Lohmann et al. (1999) Science 285:110-113, with the further modifications described by Krieger et al. (2001) Journal of Virology 75: 4614-4624 (incorporated herein by reference), which is further exemplified in the examples section. This model, while not a complete infection model for HCV, is widely accepted as the most robust and efficient model of autonomous HCV RNA replication currently available. It will be appreciated that it is important to distinguish between compounds that specifically interfere with HCV functions from those that exert cytotoxic or cytostatic effects in the HCV replicon model, and as a consequence cause a decrease in HCV RNA or linked reporter enzyme concentration. […]
The replicon cells were plated in 384-well plates in the presence of the test and control compounds which were added in various concentrations. Following an incubation of three days, HCV replication was measured by assaying luciferase activity (using standard luciferase assay substrates and reagents and a Perkin Elmer ViewLux™ ultraHTS microplate imager). […] The inhibitory activity of the compound on luciferase activity was monitored on the Huh-Luc cells, enabling a dose-response curve for the test compound. […]

The nature of series [3]: Cytotoxicity in Huh-7 cells. It is filed as cell-based. The conditions noted are these: human. On the procedure: as §1, with “concentration. Assays are known in the field for the evaluation of cellular cytotoxicity based for example on the activity of mitochondrial enzymes using fluorogenic redox dyes such as resazurin. Furthermore, cellular counter screens exist for the evaluation of non-selective inhibition of linked reporter gene activity, such as firefly luciferase.” for “concentration.”

For `Cc1cn([C@@H]2O[C@H](CO)[C@@H](O)[C@]23CCO3)c(=O)[nH]c1=O` [1-(2-O,2-C-ethano-β-D-ribofuranosyl)thymine], the “activity against HIV” value in series [1] is “no activity was found”. The term EC50 denotes the concentration that produces a half-maximal response. Higher therefore signals a less potent agent. The CC50 is the concentration at which the toxic effect on the cells reaches its halfway point. Lower therefore signals greater toxicity to the cells. With `CCCCOC(=O)[C@H](C)N[P@@](=O)(OC[C@H]1O[C@@H](n2ccc(=O)[nH]c2=O)[C@@]2(CCO2)[C@@H]1O)Oc1ccccc1` [P1, butyl N-[(R)-{[(4R,5R,7R,8R)-5-(2,4-dioxo-3,4-dihydro-pyrimidin-1(2H)-yl)-8-hydroxy-1,6-dioxaspiro[3.4]oct-7-yl]methoxy}(phenoxy)-phosphoryl]-L-alaninate], the EC50 in series [2] was found to be 4.47 µM. Besides, the CC50 in series [3] was over 98 µM. For `O=c1ccn([C@@H]2O[C@H](CO)[C@@H](O)[C@]23CCO3)c(=O)[nH]1` [1-(2-O,2-C-ethano-β-D-ribofuranosyl)uracil], in series [1], the “activity against HIV” value is “no activity was found”.

The record behind these values is patent US9006209B2, “Uracyl spirooxetane nucleoside phosphoramidates” (Janssen Products, LP, priority 2010, dated 2015).
